Values of other authors as cited in patent US20080287507A1, “Nicotine containing toiletry waters” (priority 2007, published 2008).

What was measured:
[1] = smoking a cigarette

## CN1CCCC1c1cccnc1 (centres unmarked) [Nicotine, 3-(1-methyl-2-pyrrolidinyl)-pyridine]
other
  single dose that may kill an adult: Approximately 40 milligrams
[1]
  time for nicotine to reach the brain after inhalation: around ten
